Patent US5776720A, “Assay reagent” (priority 1995, dated 1998)
Counter-ions that a name gives are not always drawn.

How the values were obtained:
Type in all cases: cell-based, human
Design in all cases: unit not given here
Details in all cases: normal donors
lymphocytes = assay: Normal leukocyte enzyme activity (Table 3A), lymphocytes
Excerpt: (§1) The measured fluorescence intensity can be converted from mean channel fluorescence (in peak or integrated mode) to MESF (molecules of equivalent soluble fluorochrome, Flow Cytometry Standards Corp. , San Juan, Puerto Rico) or International Units of hydrolysis per cell. A normal range of enzyme activity is established by assaying males and females in sufficient quantity to characterize the population levels statistically.
(§2) A normal in house adult donor pool was drawn, recording sex and determining that no known disease state was present at the time of sample draw. Criteria for rejecting samples included patients under medication, patients with infection or inflammation of any type, colds and flu as well as any known medical illness such as cancer, heart ailment and high blood pressure. A donor list of 75 patients has been developed and a mean and 2 sd range established. A subgroup of "super normals" was developed from this list by examining the 75 patients to determine which group falls closest to the mean for all enzymes in all cell types tested. These patients were used as the "wellness index" or best group of "normalcy" patients. If a study required the use of children or newborns then this same format was used to develop a data base for these age groups.

monocytes = assay: Normal leukocyte enzyme activity (Table 3A), monocytes
Excerpt: as §1, §2

granulocytes = assay: Normal leukocyte enzyme activity (Table 3A), granulocytes
Excerpt: as §1, §2

Row | Compound | NORMAL LEUKOCYTE ENZYME ACTIVITY, LYMPHS Mean (lymphocytes) | NORMAL LEUKOCYTE ENZYME ACTIVITY, MONOS Mean (monocytes) | NORMAL LEUKOCYTE ENZYME ACTIVITY, GRANS Mean (granulocytes)
1 | C[C@H](N)C(=O)N[C@@H](C)C(=O)Nc1ccc2c(c1)Oc1cc(NC(=O)[C@H](C)NC(=O)[C@H](C)N)ccc1C21OC(=O)c2ccccc21 [AA--TFA, (H--L--Ala--Ala)2 Rho 110.2TFA] | 56.95 | 158.31 | 154.81
2 | C[C@H](N)C(=O)Nc1ccc2c(c1)Oc1cc(NC(=O)[C@H](C)N)ccc1C21OC(=O)c2ccccc21 [ALA, (Ala)2 Rho 110] | 75.85 | 172.33 | 149.02
3 | N=C(N)NCCC[C@H](N)C(=O)Nc1ccc2c(c1)Oc1cc(NC(=O)[C@@H](N)CCCNC(=N)N)ccc1C21OC(=O)c2ccccc21 (stereo partly drawn) [ARG, (H--L--Arg)2 Rho 110.4TFA] | 1.47 | 10.34 | 5.16
4 | N[C@@H](CC(=O)O)C(=O)Nc1ccc2c(c1)Oc1cc(NC(=O)[C@@H](N)CC(=O)O)ccc1C21OC(=O)c2ccccc21 [ASP, (H--L--Asp)2 --Rho 110.2TFA] | 0.26 | 0.66 | 0.45
5 | O=C(CCl)Oc1ccc2c(c1)Oc1cc(OC(=O)CCl)ccc1C21OC(=O)c2ccccc21 [CHLOAC, FL(chloroacetate)2] | 2.49 | 7.33 | 6.48
6 | CC(=O)Oc1ccc2c(c1)Oc1cc(OC(C)=O)ccc1C21OC(=O)c2ccccc21 [DIACET 6.5, Fluorescein (acetate)2, reference compound] | 109.89 | 534.00 | 408.88
7 | CC(=O)Oc1ccc2c(c1)Oc1cc(OC(C)=O)ccc1C21OC(=O)c2ccccc21 [DIACET 7.5, Fluorescein (acetate)2, reference compound] | 89.30 | 432.78 | 348.01
8 | CCCC(=O)Oc1ccc2c(c1)Oc1cc(OC(=O)CCC)ccc1C21OC(=O)c2ccccc21 [DIBUT 6.5, FL(butyrate)2] | 4.08 | 10.37 | 6.43
9 | CCCCCCC(=O)Oc1ccc2c(c1)Oc1cc(OC(=O)CCCCCC)ccc1C21OC(=O)c2ccccc21 [DIHEP 6.5, FL(heptanoate)2] | 9.17 | 32.25 | 18.57
10 | CCCCCCC(=O)Oc1ccc2c(c1)Oc1cc(OC(=O)CCCCCC)ccc1C21OC(=O)c2ccccc21 [DIHEP 7.5, FL(heptanoate)2] | 9.73 | 36.15 | 20.41
11 | CCCCCC(=O)Oc1ccc2c(c1)Oc1cc(OC(=O)CCCCC)ccc1C21OC(=O)c2ccccc21 [DIHEX 6.5, FL(hexanoate)2] | 15.10 | 72.87 | 33.84
12 | CCCCCC(=O)Oc1ccc2c(c1)Oc1cc(OC(=O)CCCCC)ccc1C21OC(=O)c2ccccc21 [DIHEX 7.5, FL(hexanoate)2] | 7.54 | 37.22 | 17.57
13 | CCCCCCCCCCCCCCCC(=O)Oc1ccc2c(c1)Oc1cc(OC(=O)CCCCCCCCCCCCCCC)ccc1C21OC(=O)c2ccccc21 [DIPAL 6.5, FL(palmitate)2] | 0.15 | 0.30 | 0.14
14 | CCCCCCCCCCCCCCCC(=O)Oc1ccc2c(c1)Oc1cc(OC(=O)CCCCCCCCCCCCCCC)ccc1C21OC(=O)c2ccccc21 [DIPAL 7.5, FL(palmitate)2] | 0.14 | 0.30 | 0.14
15 | CCC(=O)Oc1ccc2c(c1)Oc1cc(OC(=O)CC)ccc1C21OC(=O)c2ccccc21 [DIPRO 6.5, FL(propionate)2] | 86.11 | 441.65 | 349.18
16 | CCC(=O)Oc1ccc2c(c1)Oc1cc(OC(=O)CC)ccc1C21OC(=O)c2ccccc21 [DIPRO 7.6, FL(propionate)2] | 96.34 |  | 429.17
17 | CCCCC(=O)Oc1ccc2c(c1)Oc1cc(OC(=O)CCCC)ccc1C21OC(=O)c2ccccc21 [DIVAL 6.5, FL(valerate)2] | 33.13 | 184.51 | 92.81
18 | O=C1OC2(c3ccc(OC4O[C@H](CO)[C@H](O)[C@H](O)[C@H]4O)cc3Oc3cc(OC4O[C@H](CO)[C@H](O)[C@H](O)[C@H]4O)ccc32)c2ccccc21 (stereo partly drawn) [GALAC, (D-galactose)2 fluorescein] | 0.38 | 5.94 | 1.58
19 | CC(C)C[C@H](NC(=O)CN)C(=O)Nc1ccc2c(c1)Oc1cc(NC(=O)[C@H](CC(C)C)NC(=O)CN)ccc1C21OC(=O)c2ccccc21 [GL, (H Gly--Leu)2 Rho 110.2FTA] | 9.42 | 41.78 | 29.16
20 | C[C@H](NC(=O)[C@@H](N)CCCCN)C(=O)Nc1ccc2c(c1)Oc1cc(NC(=O)[C@H](C)NC(=O)[C@@H](N)CCCCN)ccc1C21OC(=O)c2ccccc21 [KA, (Lys-Ala)2 Rho 110] | 11.47 | 39.35 | 29.15
21 | C[C@H](NC(=O)[C@@H](N)CCCCN)C(=O)Nc1ccc2c(c1)Oc1cc(NC(=O)[C@H](C)NC(=O)[C@@H](N)CCCCN)ccc1C21OC(=O)c2ccccc21 [KA--M, (Lys-Ala)2 Rho 110] | 0.55 | 8.74 | 1.74
22 | CC(C)C[C@H](NC(=O)[C@@H](N)CC(C)C)C(=O)N[C@@H](CCCNC(=N)N)C(=O)Nc1ccc2c(c1)Oc1cc(NC(=O)[C@H](CCCNC(=N)N)NC(=O)[C@H](CC(C)C)NC(=O)[C@@H](N)CC(C)C)ccc1C21OC(=O)c2ccccc21 (stereo partly shown) [LLR, (H--L Leu--Leu--Arg)2 Rho 110.4TFA] | 4.09 | 54.32 | 9.46
23 | O=C1OC2(c3ccc(NC(=O)[C@@H]4CCCN4)cc3Oc3cc(NC(=O)[C@@H]4CCCN4)ccc32)c2ccccc21 [PRO, (H--L--Pro)2 --Rho 110.2TFA] | 1.70 | 6.83 | 9.19
24 | NC(=O)CC[C@H](N)C(=O)N[C@@H](CO)C(=O)Nc1ccc2c(c1)Oc1cc(NC(=O)[C@H](CO)NC(=O)[C@@H](N)CCC(N)=O)ccc1C21OC(=O)c2ccccc21 [QS, (H--L--Gln--Ser)2 Rho 110.2TFA] | 1.70 | 10.66 | 4.67
25 | N[C@@H](CO)C(=O)Nc1ccc2c(c1)Oc1cc(NC(=O)[C@@H](N)CO)ccc1C21OC(=O)c2ccccc21 [SER, (H--L--Ser)2 Rho 110.2TFA] | 1.35 | 6.49 | 3.40
26 | CC(C)[C@H](N)C(=O)N[C@@H](CCCCN)C(=O)Nc1ccc2c(c1)Oc1cc(NC(=O)[C@H](CCCCN)NC(=O)[C@@H](N)C(C)C)ccc1C21OC(=O)c2ccccc21 [VK, (Val-Lys)2 Rho 110] | 1.87 | 20.38 | 
27 | CC(C)[C@H](N)C(=O)N[C@@H](CO)C(=O)Nc1ccc2c(c1)Oc1cc(NC(=O)[C@H](CO)NC(=O)[C@@H](N)C(C)C)ccc1C21OC(=O)c2ccccc21 [VS, (H--L--Val--Ser)2 Rho 110.2TFA] | 3.81 | 19.61 | 8.27
28 | C[C@H](NC(=O)OCc1ccccc1)C(=O)N[C@@H](C)C(=O)Nc1ccc2c(c1)Oc1cc(NC(=O)[C@H](C)NC(=O)[C@H](C)NC(=O)OCc3ccccc3)ccc1C21OC(=O)c2ccccc21 [Z--AA, (Z--Ala--Ala)2 Rho 110] | 151.20 | 328.25 | 363.20
29 | C[C@H](NC(=O)OCc1ccccc1)C(=O)NCC(=O)Nc1ccc2c(c1)Oc1cc(NC(=O)CNC(=O)[C@H](C)NC(=O)OCc3ccccc3)ccc1C21OC(=O)c2ccccc21 [Z--AG, (Z--Ala--Gly)2 Rho 110] | 15.17 | 34.51 | 33.19
30 | O=C(NCC(=O)N1CCC[C@H]1C(=O)Nc1ccc2c(c1)Oc1cc(NC(=O)[C@@H]3CCCN3C(=O)CNC(=O)OCc3ccccc3)ccc1C21OC(=O)c2ccccc21)OCc1ccccc1 [Z--GP, (carbobenzyloxycarbonyl-Gly-Pro)2 Rho 110] | 107.56 | 225.10 | 240.99
